Data on nine molecules can be found in ChEMBL document CHEMBL1201862, “PubChem BioAssay data set” (2004).

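A five-concentration, 48-hour dose response in 96-well plates underlies each endpoint, interpolated linearly between surrounding concentrations. At the GI50, growth is halved.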 The source made the active and inactive calls. No stated cut-off is given here; in the data, active = GI50 up to about 1.1 µM and inactive = higher.

Some test systems named below: A549; ACHN; COLO 205; HCT-15; HOP-62; IGROV-1; K562; LOX IMVI; M14; Malme-3M; NCI-H226; NCI-H460; SF-268; SK-MEL-28; UACC-257; UO-31.
What all share (experiment): growth of human tumour cells (NCI), 48 h

In the case of `Cc1[nH]c2c(C)cccc2c1C1Cc2ccccc2N1` (stereo not drawn), the GI50 with A549 is 21.7 µM (inactive); in the test on ACHN it was 27.4 µM (inactive); in the test with COLO 205, 18.2 µM (inactive); with HCT-15, 21.3 µM; in the test on HOP-62, 16.4 µM (inactive); in the test on IGROV-1, 17.3 µM (inactive). For the same molecule, the GI50 is 29.2 µM (inactive) in the test on K562; 17.1 µM (inactive) with LOX IMVI; 15.5 µM (inactive) in the test with M14; 19.1 µM (inactive) with Malme-3M; 23.8 µM (inactive) in the test with NCI-H226; 25.1 µM (inactive) with NCI-H460. Besides, the GI50 in the test with SF-268 was 20.5 µM (inactive); with SK-MEL-28, 18.8 µM (inactive); in the test on UACC-257, 22.3 µM (inactive); in the test on UO-31, 22.1 µM (inactive).
As for `N#CC(C(=N/NC(N)=S)/C(=N\NC(N)=S)C(C#N)c1ccccc1)c1ccccc1` (stereo not drawn), the GI50 with A549 was > 10 µM (inactive); in the test on ACHN, > 10 µM (inactive); in the test on COLO 205 it was > 10 µM (inactive); in the test on HCT-15, greater than 10 µM; in the test with HOP-62, > 10 µM (inactive); in the test on K562, > 10 µM (inactive). In addition, the GI50 in the test on LOX IMVI, in the test with M14, in the test on Malme-3M, in the test with NCI-H226, in the test with NCI-H460 and in the test with SF-268 was > 10 µM (inactive) throughout. Moreover, the GI50 in the test with SK-MEL-28, in the test on UACC-257 and with UO-31 was > 10 µM (inactive) each time.
Regarding `COc1ccc(NC(=O)c2oc3cc(O)ccc3c(=O)c2C)c([N+](=O)[O-])c1`, the GI50 with A549 is > 100 µM (inactive); with ACHN, > 100 µM (inactive); in the test on COLO 205, > 100 µM (inactive); in the test with HCT-15, greater than 100 µM; with HOP-62 it was > 100 µM (inactive); in the test with IGROV-1, > 100 µM (inactive). Moreover, the GI50 with K562, in the test on LOX IMVI, in the test on M14, in the test on Malme-3M, with NCI-H226 and in the test on NCI-H460 was > 100 µM (inactive) in each case. In addition, the GI50 with SF-268, in the test on SK-MEL-28, with UACC-257 and in the test on UO-31 was > 100 µM (inactive) in each case.
With `COc1ccc(C(Cc2cc(OC)c(OC)c(OC)c2)C(=O)O)cc1` (stereo not drawn), the GI50 in the test on A549 is 60 µM (inactive); with ACHN it was > 100 µM (inactive); in the test with COLO 205 it was > 100 µM (inactive); in the test on HCT-15, 43.5 µM; with HOP-62, > 100 µM (inactive); in the test on IGROV-1, 76.2 µM (inactive). Also, the GI50 in the test with K562 was 40.4 µM (inactive); in the test on LOX IMVI it was > 100 µM (inactive); with M14 it was 44.6 µM (inactive); in the test on Malme-3M, 74 µM (inactive); in the test with NCI-H226 it was 13.6 µM (inactive); in the test on NCI-H460, 45.7 µM (inactive). Further, the GI50 with SF-268 is 81.8 µM (inactive); with SK-MEL-28 it was 56.6 µM (inactive); in the test with UACC-257 it was 54.3 µM (inactive); in the test on UO-31, 72.3 µM (inactive).
For `CCOC(=O)C(CCCNC(=O)OC(C)(C)C)N(Cc1ccc(OC)cc1OC)C(=O)CC(=O)CP(=O)(OCC)OCC` (stereo not drawn), the GI50 in the test with A549, with ACHN, with COLO 205, with HOP-62, with IGROV-1 and in the test with K562 was > 100 µM (inactive) in each case. The GI50 in the test on LOX IMVI, in the test on M14, with Malme-3M, in the test with NCI-H226, in the test on NCI-H460 and in the test with SF-268 was > 100 µM (inactive) throughout. In addition, the GI50 in the test on SK-MEL-28, in the test with UACC-257 and in the test with UO-31 was > 100 µM (inactive) each time.
As for `COc1cc(/C=C2\CCc3ccccc3C2=O)cc(OC)c1OC`, the GI50 is 20.9 µM (inactive) in the test with A549; 15.8 µM (inactive) in the test on ACHN; 17 µM (inactive) in the test with COLO 205; 17.3 µM in the test on HCT-15; 21.5 µM (inactive) with HOP-62; 8.43 µM (inactive) in the test with K562. Also, the GI50 is 11.9 µM (inactive) in the test on LOX IMVI; 16.2 µM (inactive) in the test on M14; 16.4 µM (inactive) with Malme-3M; 18.6 µM (inactive) in the test on NCI-H226; 16.9 µM (inactive) in the test on NCI-H460; 16.4 µM (inactive) in the test on SF-268. For the same molecule, the values for the GI50 in the test with SK-MEL-28, with UACC-257 and with UO-31 were 15.1 µM (inactive), 14.3 µM (inactive) and 16.8 µM (inactive), respectively.
As to `O=C(CSc1nnc(Cc2ccccc2)o1)Nc1ccc(Cl)cc1[N+](=O)[O-]`, the GI50 in the test with A549 is 18.9 µM (inactive); in the test with ACHN, 12.6 µM (inactive); in the test on COLO 205, 21.9 µM (inactive); in the test on HCT-15, 16.5 µM; in the test with HOP-62, 17.4 µM (inactive); in the test on K562, 25.6 µM (inactive). Also, the GI50 in the test with LOX IMVI is 13.1 µM (inactive); with M14 it was 16.5 µM (inactive); in the test with Malme-3M, 16.4 µM (inactive); in the test on NCI-H226 it was 21.2 µM (inactive); with NCI-H460, > 10 µM (inactive); with SF-268 it was 21.5 µM (inactive). In addition, the GI50 with SK-MEL-28 is 15.5 µM (inactive); in the test with UACC-257 it was 19.9 µM (inactive); with UO-31, 18.4 µM (inactive).
Take `COCC1N=C(c2cc(OC)c(OC)c(OC)c2-c2cc3c(cc2C2OCCCO2)OCO3)O[C@H]1c1ccccc1` (stereo partly drawn): the GI50 is > 100 µM (inactive) in the test with A549; > 100 µM (inactive) in the test with ACHN; greater than 100 µM with HCT-15; > 100 µM (inactive) with HOP-62; > 100 µM (inactive) in the test with IGROV-1; > 100 µM (inactive) in the test with K562. Further, the GI50 in the test with LOX IMVI, with M14, with Malme-3M, in the test with NCI-H226, with NCI-H460 and in the test on SF-268 was > 100 µM (inactive) throughout. The GI50 in the test with SK-MEL-28, in the test with UACC-257 and with UO-31 was > 100 µM (inactive) in each case.
Consider `CCCCCCCCCCCCCC(=O)NCC(OCC)OCC`, for which the GI50 is > 100 µM (inactive) in the test on A549; > 100 µM (inactive) in the test on ACHN; > 100 µM (inactive) with COLO 205; greater than 100 µM in the test on HCT-15; > 100 µM (inactive) in the test on HOP-62; > 100 µM (inactive) in the test on IGROV-1. Besides, the GI50 in the test on LOX IMVI, with M14, in the test on Malme-3M, in the test on NCI-H226, in the test with NCI-H460 and in the test with SF-268 was > 100 µM (inactive) in each case. Besides, the GI50 in the test with SK-MEL-28, with UACC-257 and with UO-31 was > 100 µM (inactive) throughout.
